How the values were obtained:
[1] = target: T1, Kappa-type opioid receptor (Homo sapiens, UniProt P41145); assay: Displacement of [3H]U69,593 from human kappa opioid receptor expressed in CHO cell membranes after 60 mins by liquid scintillation counting
[2] = target: Mu-type opioid receptor (Homo sapiens, UniProt P35372); assay: Displacement of [3H]DAMGO from human mu opioid receptor expressed in CHO cell membranes after 60 mins by liquid scintillation counting
[3] = target: Delta-type opioid receptor (Homo sapiens, UniProt P41143); assay: Displacement of [3H]pCl-DPDPE from human delta opioid receptor expressed in CHO cell membranes after 60 mins by liquid scintillation counting
Chain of Delta-type opioid receptor (P41143 whole entry): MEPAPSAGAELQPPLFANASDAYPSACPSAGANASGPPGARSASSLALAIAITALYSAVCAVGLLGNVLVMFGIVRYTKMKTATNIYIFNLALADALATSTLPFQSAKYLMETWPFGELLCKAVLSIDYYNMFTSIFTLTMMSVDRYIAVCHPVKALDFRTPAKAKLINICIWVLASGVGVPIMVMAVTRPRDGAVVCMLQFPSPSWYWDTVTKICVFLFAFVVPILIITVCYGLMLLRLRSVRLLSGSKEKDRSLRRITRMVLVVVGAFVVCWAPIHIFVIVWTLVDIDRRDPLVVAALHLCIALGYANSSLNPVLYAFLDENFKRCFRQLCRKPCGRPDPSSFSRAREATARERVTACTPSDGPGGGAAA

[4] = target: T1, Kappa-type opioid receptor; assay: Agonist activity at human kappa opioid receptor expressed in CHO cell membranes after 60 mins by [35S]GTPgammaS assay
[5] = target: T1, Kappa-type opioid receptor; settings: CHO
Description: Antagonist activity at human kappa opioid receptor expressed in CHO cell membranes assessed as inhibition of U69,593 stimulated [35S]GTPgammaS binding after 60 mins

[6] = target: T1, Kappa-type opioid receptor; assay: Agonist activity at human kappa opioid receptor expressed in CHO cell membranes after 60 mins by [35S]GTPgammaS assay relative to U69,593; settings: 1 h, read-out: %max

T1 sequence (P41145 whole entry): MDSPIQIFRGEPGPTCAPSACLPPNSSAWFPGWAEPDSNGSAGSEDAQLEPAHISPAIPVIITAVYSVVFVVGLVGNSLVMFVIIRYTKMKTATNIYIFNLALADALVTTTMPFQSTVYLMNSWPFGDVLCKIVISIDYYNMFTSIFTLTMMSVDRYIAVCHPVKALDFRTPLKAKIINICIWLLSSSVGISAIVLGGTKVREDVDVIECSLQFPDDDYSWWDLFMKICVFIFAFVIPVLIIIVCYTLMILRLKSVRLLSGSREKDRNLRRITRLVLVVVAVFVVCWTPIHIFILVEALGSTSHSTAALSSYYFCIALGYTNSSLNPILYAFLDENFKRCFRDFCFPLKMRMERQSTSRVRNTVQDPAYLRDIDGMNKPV
Chain of Mu-type opioid receptor (P35372 whole entry): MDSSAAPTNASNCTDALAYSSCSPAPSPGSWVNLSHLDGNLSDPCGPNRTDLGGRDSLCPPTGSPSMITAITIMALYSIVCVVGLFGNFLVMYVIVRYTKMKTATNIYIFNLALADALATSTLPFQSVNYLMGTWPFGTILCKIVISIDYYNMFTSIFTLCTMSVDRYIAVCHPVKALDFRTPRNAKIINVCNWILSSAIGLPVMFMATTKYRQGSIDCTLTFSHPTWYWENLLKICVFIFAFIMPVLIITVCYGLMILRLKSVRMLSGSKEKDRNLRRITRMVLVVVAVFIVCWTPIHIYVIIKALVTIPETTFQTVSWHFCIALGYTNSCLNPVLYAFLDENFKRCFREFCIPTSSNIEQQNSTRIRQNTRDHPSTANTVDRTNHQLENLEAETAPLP

With `Oc1cccc(CCN(CCc2ccccc2)CCc2ccccc2)c1` the Ki [1] was 0.211 µM, the Ki [2] was > 10 µM and the Ki [3] was > 10 µM. The EC50 [4] was > 10 µM and the Ke [5] was 1310 nM.
`Oc1ccc(CCN(CCc2ccccc2)CC2CC2)cc1` gave a Ki [1] of 0.218 µM, a Ki [2] of 1.75 µM and a Ki [3] of 2.19 µM. For the same molecule, the EC50 [4] was > 10 µM and the Ke [5] was 32.1 nM.
Molecule `Oc1ccc(CCN(CCc2ccccc2)CC2CCC2)cc1` has a Ki [1] of 0.0363 µM, a Ki [2] of 0.731 µM and a Ki [3] of 2.13 µM. For the same molecule, the EC50 [4] was 0.109 µM and the Emax [6] was 43.8%.
